Assay results: patent publication US20060019890A1, “Method for treating cardiac remodeling following myocardial injury” (priority 2004, published 2006)

Legend:
[1] = system: human cardiac fibroblasts; assay: Real-time RT-PCR gene expression in cardiac fibroblasts; type: cell-based; conditions: for ACTA2 expression level relative to control / CTGF expression level relative to control / Collagen 1 expression level relative to control / Fibronectin expression level relative to control / IL6 expression level relative to control / IL11 expression level relative to control / PTGS2/COX-2 expression level relative to control / SERPINE1/PAI-1 expression level relative to control / TIMP3 expression level relative to control: normalized to 18s RNA; for effect on BNP inhibition of TGFβ-induced Collagen-1 expression, real-time RT-PCR: U0126 0.1-10 μmol/L, PD98059 10 μmol/L
Method: Real-time RT-PCR^18 was performed in a two-step manner. cDNA synthesis and real-time detection were carried out in a PTC-100™ Thermal Cycler (MJ Research Inc, Waltham, Mass.) and an ABI Prism™ 7700 Sequence Detection System (Applied Biosystems, Foster City, Calif.), respectively. Random hexamers (Qiagen, Valencia, Calif.) were used to generate cDNA from 200 ng RNA as described in Applied Biosystems User Bulletin #2. TaqMan™ PCR Core Reagent Kit or TaqMan™ Universal PCR Master Mix (Applied Biosystems) were used in subsequent PCR reactions according to the manufacturer's protocols. Relative quantitation of gene expression was performed using the relative standard curve method. All real-time RT-PCR reactions were performed in triplicate.
Sequence specific primers and probes were designed using Primer Express Version 2 software (Applied Biosystems). Sequences of primers and probes can be found in Table 1 below. Expression levels were normalized to 18S rRNA. The selection of 18S rRNA as an endogenous control was based on an evaluation of the ΔCT levels (Applied Biosystems document # 4308134C) of 6 “housekeeping” genes: Cyclophilin A, 18S, GAPDH, β-actin, β-Glucuronidase, and Hypoxanthine Guanine Phosphoribosyl Transferase.

[2] = system: human cardiac fibroblasts; assay: Western blot analysis of Collagen 1 and Fibronectin protein; type: cell-based; conditions: 48 h; for effect on BNP inhibition of TGFβ-induced Collagen-1 expression, Western blot: U0126 0.1-10 μmol/L, PD98059 10 μmol/L
Method: (§1) Lysis was induced with 0.2 ml of buffer containing 20 mM Tris-HCL, pH 7.9, 137 mM NaCl, 1% Triton X-100, 5 mM EDTA, 10 mM NaF, 1 mM β-glycerophosphate, and protease inhibitor cocktail. The protein concentration of each lysate was measured using coomassie protein reagent from PIERCE. Twenty μg of protein from each sample was loaded and electrophoresed on 4-12% gradient polyacrylamide gels and electrophoretically transferred to nitrocellulose membranes (Invitrogen, San Diego, Calif.). The membranes were incubated with rabbit anti-human Collagen 1 antibody (Cortex Biochem, San Leandro, Calif.), HRP-conjugated anti-human Fibronectin antibody, or goat anti-Actin antibody (Santa Cruz Biotehnology, Santa Cruz, Calif.) in TBST buffer containing 20 mM Tris-HCl, pH 7.5, 150 mM NaCl, 0.1% Tween-20, and 5% nonfat dried milk at 4° C. for ˜16 h. For ERK phosphorylation, cells were treated with 0.5 μmol/L BNP in the presence of 1 μmol/L KT5823 or 10 μmol/L U0126 for 15 min; the membranes were incubated with rabbit anti-human phospho-ERK ½ antibody or rabbit anti-human ERK ½ antibody (Cell Signaling, Beverly, Mass.). For secondary antibody detection, membranes were incubated with HRP-conjugated anti-rabbit antibody or anti-goat antibody at room temperature for 1 h and washed 3 times with TBST buffer. The blots were soaked in ECL Plus reagent for 5 min and exposed to KODAK x-ray film. Signals were identified and quantified using a Typhoon Scanner and Densitometer from Amersham Biosciences (Piscataway, N.J.). Data was analyzed by ANOVA using the Newman-Keuls test to assess significance. Results cGMP Production in Cardiac Fibroblasts

ERK = assay: Western analysis of ERK phosphorylation; type: cell-based, human; conditions: 15 min; for effect on BNP induced ERK phosphorylation: KT5823 1 μmol/L or U0126 10 μmol/L
Method: as §1

[3] = Degradation of added BNP in cardiac fibroblast culture (immunoreactive assays and cGMP stimulation cell bioassays); type: in vitro ADME; conditions: human, primary human cardiac fibroblasts in culture, within 24 h, read-out: added BNP metabolized
Method: Two lots of primary human cardiac fibroblasts, derived from a person (lot 1) and a person (lot 2), were provided by Cambrex Bio Science (Walkersville, Md.). […] Cells at passage 3-5 were cultured in FGM containing 15% FBS. At confluence, cells were split and cultured in 6-well plates for 24 h.

acute myocardial injury [4] = assay: Systolic blood pressure (tail cuff) in L-NAME/AngII acute myocardial injury model; type: in vivo; conditions: rat BNP i.v. infusion day 10 to day 14
Method: (§2) In a related study, an in vivo model for acute myocardial injury was used to explore the effects of BNP. Male Sprague Dawley rats ranging in weight from 225 to 250 gm were utilized. Acute myocardial injury was induced by administration of Nω-nitro-L-arginine methyl ester (L-NAME, 40 mg/kg/day)salt (1% NaCl) plus angiotensin II (AngII, 0.5 mg/kg/day) in the rats. The L-NAME was administered in drinking water from day 1 to day 14. Angiotensin II was continuously infused subcutaneously with an osmotic pump from day 11 to day 14. Rat BNP ([…]) was intravenously infused through an external infusion pump from day 10 to day 14.
(§3) Systolic blood pressure, plasma level of aldosterone, cardiac function heart/body weight ration and gene expression in the heart were analyzed. Systolic blood pressure was monitored via tail cuff technique with an IITC blood pressure recording system. Cardiac function was monitored via a Millar ARIA Pressure Volume Conductance System with an 1.4 F catheter. Gene expression as referenced above with results provided in FIG. 12 were monitored by RT-PCR with an ABI Prism™ 7700 sequence detection system.

[5] = Plasma level of aldosterone in L-NAME/AngII acute myocardial injury model; type: in vivo; conditions: L-NAME/AngII rats, rat BNP i.v. infusion day 10 to day 14
Method: as §2, §3

acute myocardial injury [6] = assay: Cardiac function (Millar pressure volume conductance system) in L-NAME/AngII acute myocardial injury model; type: in vivo, rat; conditions: L-NAME/AngII rats
Method: as §2, §3

acute myocardial injury [7] = assay: Heart/body weight ratio in L-NAME/AngII acute myocardial injury model; type: in vivo; conditions: L-NAME/AngII rats, rat BNP i.v. infusion day 10 to day 14
Method: as §2, §3

acute myocardial injury [8] = assay: Gene expression in the heart by RT-PCR in L-NAME/AngII acute myocardial injury model; type: in vivo, rat; conditions: stimulated by L-NAME plus angiotensin II
Method: In a related study, a gene microassay profile of rat heart tissue was conducted. Fibrotic and extracellular matrix associated genes were stimulated in vivo by L-NAME plus angiotensin II.
as §2, §3

[9] = system: human cardiac fibroblasts; assay: cDNA microarray gene expression profiling of TGFβ- and/or BNP-treated cardiac fibroblasts
Method: Two lots of primary human cardiac fibroblasts, derived from a person (lot 1) and a person (lot 2), were provided by Cambrex Bio Science (Walkersville, Md.). Cells stained positive for α-smooth muscle actin and vimenfin antibodies corroborating their identity as cardiac fibroblasts and myofibroblasts. Both lots were used for the real-time RT-PCR studies; lot 1 was used for the microarray analysis. Cells at passage 3-5 were cultured in FGM containing 15% FBS. At confluence, cells were split and cultured in 6-well plates for 24 h.
Gene expression profiles were determined from cDNA microarrays containing 8,600 elements derived from clones isolated from normalized cDNA libraries or purchased from ResGen (Invitrogen Life Technologies, Carlsbad, Calif.). DNA for spotting was generated by PCR amplification using 5′amino-modified primers (BD Biosciences Clontech, Palo Alto, Calif.) derived from flanking vector sequences. Amplified DNA was purified in a 96-well format using Qiagen's Qiaquick columns (Valencia, Calif.) according to the manufacturer's recommendations. Samples were eluted in Milli-Q purified water, dried to completion and resuspended in 7 μl of 3×SSC. A fluorescent assay using PicoGreen (Molecular Probes, Eugene, Oreg.) was randomly performed on 12% of the PCR products to determine the average yield after purification; yields were ˜1.5 μg of DNA which corresponds to a concentration of 214 μg/ml. Purified DNA was arrayed from 384-well microtiter plates onto lysine-coated glass slides using an OmniGrid II microarrayer (GeneMachines, San Carlos, Calif.). After printing, DNA was cross-linked to the glass with 65 mjoules UV irradiation and reactive amines were blocked by treatment with succinic anhydride.
Total RNA was extracted from cells using Qiagen's RNeasy kit; two wells from a 6 well plate were pooled to yield a total of 4×10^5 cells per treatment. RNA was amplified using a modified Eberwine protocol^5 that incorporated a polyA tail into the amplified RNA. Fluorescently-labeled cDNA probes were generated by reverse transcription of 4 μg of RNA with SuperScript II (Invitrogen Life Technologies, Carlsbad, Calif.) using anchored dT primers in the presence of Cy3 or Cy5 dUTP (Amersham, Piscataway, N.J.). Labeled cDNA probe pairs were precipitated with ethanol and purified using Qiaquick columns. Twenty μg each of poly(A) DNA, yeast tRNA, and human Cot1 DNA (Applied Genetics, Melbourne, Fla.) was added to the eluant. The samples were dried to completion and resuspended in 12.5 μl 3×SSC, 0.1% SDS. Probes were heated to 95° C. for 5 minutes, applied to the arrays under a 22 mm^2 cover slip and allowed to hybridize for at least 16 h at 65° C. The arrays were washed at 55° C. for 10 minutes in 2×SSC, 0.1% SDS, followed by two washes at room temperature in 1×SSC (10 min) and 0.2×SSC (15 min). Hybridization of each fluorophore was quantified using an Axon GenePix 4000A scanner.
Differential expression values were expressed as the ratio of the median of background-subtracted fluorescent intensity of the experimental RNA to the median of background-subtracted fluorescent intensity of the control RNA. For ratios greater than or equal to 1.0, the ratio was expressed as a positive value. For ratios less than 1.0, the ratio was expressed as the negative reciprocal (i.e., a ratio of 0.5=−2.0). Median ratios were normalized to 1.0 using two pools of 3000 randomly chosen cDNAs in each pool. Six replicates of each of the two pools were printed in 4 evenly distributed blocks of the array. Expression data was rejected if neither channel produced a signal of at least 2.0-fold over background. Differential expression ratios were determined as the mean of the two values from dye-swapped duplicates.

[10] = rat BNP i.v. infusion day 10 to day 14
[11] = TGFβ-stimulated cells, microarray

Structure (SMILES): CC[C@H](C)[C@@H]1NC(=O)[C@H](CCCNC(=N)N)NC(=O)[C@H](CC(=O)O)NC(=O)[C@H](CCSC)NC(=O)[C@H](CCCCN)NC(=O)[C@H](CCCNC(=N)N)NC(=O)CNC(=O)[C@H](Cc2ccccc2)NC(=O)[C@@H](NC(=O)CNC(=O)[C@H](CO)NC(=O)CNC(=O)[C@H](CCC(N)=O)NC(=O)[C@@H](NC(=O)[C@H](CCSC)NC(=O)[C@H](CCCCN)NC(=O)[C@@H]2CCCN2C(=O)[C@@H](N)CO)C(C)C)CSSC[C@@H](C(=O)N[C@@H](CCCCN)C(=O)N[C@H](C(=O)N[C@@H](CC(C)C)C(=O)N[C@@H](CCCNC(=N)N)C(=O)N[C@@H](CCCNC(=N)N)C(=O)N[C@@H](Cc2c[nH]cn2)C(=O)O)C(C)C)NC(=O)CNC(=O)[C@H](CC(C)C)NC(=O)CNC(=O)[C@H](CO)NC(=O)[C@H](CO)NC(=O)[C@H](CO)NC(=O)[C@H](CO)NC1=O [BNP, brain natriuretic peptide]
- effect on TGFβ induction of Collagen 1 mRNA levels ([1]; 6, 24 and 48 h): blocked
- ACTA2 expression level relative to control ([1]; 6 h, lot 1): 0.8 ± 0.12
- CTGF expression level relative to control ([1]; 6 h, lot 1): 0.9 ± 0.24
- Collagen 1 expression level relative to control ([1]; 6 h, lot 1): 1.0 ± 0.05
- Fibronectin expression level relative to control ([1]; 6 h, lot 1): 0.9 ± 0.19
- IL6 expression level relative to control ([1]; 6 h, lot 1): 0.9 ± 0.02
- IL11 expression level relative to control ([1]; 6 h, lot 1): 1.1 ± 0.04
- PTGS2/COX-2 expression level relative to control ([1]; 6 h, lot 1): 1.2 ± 0.22
- SERPINE1/PAI-1 expression level relative to control ([1]; 6 h, lot 1): 0.7 ± 0.08
- TIMP3 expression level relative to control ([1]; 6 h, lot 1): 0.9 ± 0.11
- ACTA2 expression level relative to control ([1]; 24 h, lot 1): 0.9 ± 0.11
- CTGF expression level relative to control ([1]; 24 h, lot 1): 1.0 ± 0.29
- Collagen 1 expression level relative to control ([1]; 24 h, lot 1): 1.1 ± 0.13
- Fibronectin expression level relative to control ([1]; 24 h, lot 1): 1.0 ± 0.10
- IL6 expression level relative to control ([1]; 24 h, lot 1): 0.9 ± 0.21
- PTGS2/COX-2 expression level relative to control ([1]; 24 h, lot 1): 1.2 ± 0.38
- SERPINE1/PAI-1 expression level relative to control ([1]; 24 h, lot 1): 0.7 ± 0.01
- TIMP3 expression level relative to control ([1]; 24 h, lot 1): 1.0 ± 0.12
- ACTA2 expression level relative to control ([1]; 24 h, lot 2): 0.9 ± 0.25
- Fibronectin expression level relative to control ([1]; 24 h, lot 2): 0.9 ± 0.24
- IL6 expression level relative to control ([1]; 24 h, lot 2): 0.9 ± 0.07
- IL11 expression level relative to control ([1]; 24 h, lot 2): 1.0 ± 0.05
- SERPINE1/PAI-1 expression level relative to control ([1]; 24 h, lot 2): 0.7 ± 0.11
- TIMP3 expression level relative to control ([1]; 24 h, lot 2): 0.7 ± 0.09
- effect on TGFβ-induced Fibronectin mRNA expression ([1]; 48 h): inhibited
- ACTA2 expression level relative to control ([1]; 48 h, lot 1): 1.0 ± 0.03
- Collagen 1 expression level relative to control ([1]; 48 h, lot 1): 1.2 ± 0.03
- Fibronectin expression level relative to control ([1]; 48 h, lot 1): 1.1 ± 0.04
- IL6 expression level relative to control ([1]; 48 h, lot 1): 0.9 ± 0.03
- IL11 expression level relative to control ([1]; 48 h, lot 1): 0.7 ± 0.10
- PTGS2/COX-2 expression level relative to control ([1]; 48 h, lot 1): 1.0 ± 0.12
- SERPINE1/PAI-1 expression level relative to control ([1]; 48 h, lot 1): 0.9 ± 0.00
- TIMP3 expression level relative to control ([1]; 48 h, lot 1): 0.9 ± 0.00
- ACTA2 expression level relative to control ([1]; 48 h, lot 2): 0.7 ± 0.11
- Collagen 1 expression level relative to control ([1]; 48 h, lot 2): 1.0 ± 0.01
- Fibronectin expression level relative to control ([1]; 48 h, lot 2): 1.0 ± 0.11
- IL6 expression level relative to control ([1]; 48 h, lot 2): 0.9 ± 0.06
- IL11 expression level relative to control ([1]; 48 h, lot 2): 0.8 ± 0.09
- PTGS2/COX-2 expression level relative to control ([1]; 48 h, lot 2): 1.0 ± 0.06
- SERPINE1/PAI-1 expression level relative to control ([1]; 48 h, lot 2): 0.8 ± 0.03
- TIMP3 expression level relative to control ([1]; 48 h, lot 2): 0.6 ± 0.00
- effect on TGFβ-induced Fibronectin protein expression [2]: inhibited
- inhibition of TGFβ-stimulated Collagen 1 protein synthesis [2]: ~75%
- ERK phosphorylation (ERK; BNP 0.5 μmol/L): activates ERK
- metabolised at 24 h [3]: 50%
- effect on systolic blood pressure raised by L-NAME+AngII (acute myocardial injury [4]): no effect
- plasma aldosterone [5]: 6.6 ± 0.16 ng/mL
- effect on cardiac output (acute myocardial injury [6]): increases
- effect on heart rate (acute myocardial injury [6]): no effect
- effect on maximum dP/dt (acute myocardial injury [6]): increased
- effect on minimum dP/dt (acute myocardial injury [6]): increased
- arterial elastance (acute myocardial injury [6]; [10]): 42.6±5.1 mmHg/ul
- diastolic volume (acute myocardial injury [6]; [10]): 22.4 ± 1.1 µL
- ejection fraction (acute myocardial injury [6]; [10]): 20.4±2.4%
- stroke volume (acute myocardial injury [6]; [10]): 4.74 ± 0.73 µL
- stroke work (acute myocardial injury [6]; [10]): 531.5±99.1 mmH*ul
- heart/body weigh ratio (acute myocardial injury [7]): 0.0029±0.001
- mRNA expression for collagen I in rat heart (acute myocardial injury [8]): markedly reduced
- mRNA expression for collagen III in rat heart (acute myocardial injury [8]): markedly reduced
- mRNA expression for fibronectin in rat heart (acute myocardial injury [8]): markedly reduced
- TGFβ-regulated gene expression events opposed ([9]; 24 h): ~88%
- TGFβ-regulated gene expression events opposed ([9]; 48 h): ~85%
- effect on TGFβ-induction of PTGS2 (COX2), TNFAIP6 and TNFSF4 [9, 11]: reversed
- effect on TGFβ-regulated cell proliferation genes (PDGFA, IGFBP10, IGF1, PTHLH, CDC25B, CUL5) [9, 11]: opposed
- effect on fibrosis and ECM gene cluster up-regulated by TGFβ [9, 11]: down-regulated
- effect on gene expression in unstimulated human cardiac fibroblasts ([9]; microarray, 24 and 48 h): no significant effects

Structure (SMILES): COC(=O)[C@@]1(OC)C[C@H]2O[C@]1(C)n1c3ccccc3c3c4c(c5c6ccccc6n2c5c31)C(=O)N(C)C4 [KT5823]
- effect on BNP induced ERK phosphorylation (ERK): completely blocked

Structure (SMILES): COc1cccc(-c2cc(=O)c3ccccc3o2)c1N [PD98059]
- effect on BNP inhibition of TGFβ-induced Collagen-1 expression, real-time RT-PCR ([1]; 48 h): reversed
- effect on BNP inhibition of TGFβ-induced Collagen-1 expression, Western blot [2]: reversed

Structure (SMILES): N#CC(=C(/N)Sc1ccccc1N)/C(C#N)=C(\N)Sc1ccccc1N [U0126]
- effect on BNP inhibition of TGFβ-induced Collagen-1 expression, real-time RT-PCR ([1]; 48 h): reversed
- effect on BNP inhibition of TGFβ-induced Collagen-1 expression, Western blot [2]: reversed
- effect on BNP induced ERK phosphorylation (ERK): completely blocked
